{"source": "patent US12648565B2", "about": "“Post-emergence herbicide” (Belvedere Foliar LLC, priority 2017, dated 2026)", "key": {"[1]": {"system": "Pasture Blend 1, Calendula officinalis (Common marigold), Cineraria meritima (Dusty miller) (plants 21, 7, 10)", "assay": "Trial 13: greenhouse foliar spray trial, visual toxicity scoring", "type": "in vivo", "conditions": "Day 11", "text": "(§1) The majority of greenhouse trials conducted to date have been of one basic design: • 1. Samples of different species of flowering plant and grass are exposed to different formulations of the herbicide in accordance with some embodiments, prepared in a range of concentrations, in combination with potentially suitable adjuvants, and applied as an aquatic spray. Experimental plants are purchased either from a local nursery, grown from ornamental and weed seed packs, or grown from seeds of a custom blend prepared specifically for this project and listed in Table 4B. The experimental variable in a typical test is the molar mass concentration of the nutrient salt being examined. Other factors including pH, nitrogen source, and the amount and composition of surfactant or penetrant are constants within a trial except when one of these factors is itself the variable of interest in the experiment. Experiments are controlled unless irrelevant for a particular test. • 2. […] Plants are sprayed with the experimental formulation, always in late afternoon (greenhouse tests), or in early morning (field tests), are observed over as many as several weeks, and their visible state of decline scored by the same examiner on a 9 points system relying on visual effects of toxicity. […]"}, "[2]": {"system": "Pasture Blend 2, Allium cepa (Onion), Cineraria maritima (Dusty miller), Antirrhinum majus (Snapdragon)", "assay": "Trial 44: greenhouse foliar spray trial, visual toxicity scoring", "type": "in vivo", "text": "The majority of greenhouse trials conducted to date have been of one basic design: • 1. Samples of different species of flowering plant and grass are exposed to different formulations of the herbicide in accordance with some embodiments, prepared in a range of concentrations, in combination with potentially suitable adjuvants, and applied as an aquatic spray. Experimental plants are purchased either from a local nursery, grown from ornamental and weed seed packs, or grown from seeds of a custom blend prepared specifically for this project and listed in Table 4B. The experimental variable in a typical test is the molar mass concentration of the nutrient salt being examined. Other factors including pH, nitrogen source, and the amount and composition of surfactant or penetrant are constants within a trial except when one of these factors is itself the variable of interest in the experiment. Experiments are controlled unless irrelevant for a particular test. • 2. Standard techniques to reduce experimental error are employed including use of controls; standard spray application pressures; standardized growing conditions, growing medium, containers, and source irrigation water; and preparation and shipping of samples for laboratory analysis according to required standard laboratory protocols. • 3. Plants are sprayed with the experimental formulation, always in late afternoon (greenhouse tests), or in early morning (field tests), are observed over as many as several weeks, and their visible state of decline scored by the same examiner on a 9 points system relying on visual effects of toxicity. (Table 5.)\nScores of half-value are also used: 0, 0.5, 1.0, 1.5, 2.0, 2.5, etc. • 4. The estimated successful herbicidal effectiveness of a formulation was determined from a combination of averaged and cumulative scores of 4.0 to 5.0 observed approximately 14 days or longer after application: “All leaves and flowers if present desiccated, browned, wilted, and stems or blades lodged; no green tissue visible; no regrowth from roots visible.”\nS-1 corresponds to the highest concentration of active nutrient tested, S-3 corresponds to the lowest concentration of nutrient tested and S-2 represents an intermediate level."}, "[3]": {"system": "broadleaf (dicot) samples: Brassica oleracea (Kale), Dichondra repens, Fragraia x ananassa (Strawberry)", "assay": "Trial 46: greenhouse foliar spray trial, broadleaf (dicot) samples, visual toxicity scoring", "type": "in vivo, Fragaria x ananassa", "text": "(§2) FIG. 9 is a graph showing the average toxicity scores for the […] plants tested in Trial 46, which tested an embodiment of an herbicide composition and method of using the same. The plants were numbered P2, 5, 11A, and 13, corresponding to Pasture Blend 2, Brassica oleracea (Kale), Dichondra repens, Fragraia x ananassa Strawberry (Refer to Tables 4A and 4B for plant species identification). Solutions S-1 and S-2 correspond to solutions of Monopotassium phosphate (KH2PO4) at concentrations of 2.0 molarity (Solution 1) and 1.5 molarity (Solution 2). […] The adjuvants in Trial 46 were […] silicone surfactant and methylated seed oil (MSO).\n(§3) The majority of greenhouse trials conducted to date have been of one basic design: • 1. Samples of different species of flowering plant and grass are exposed to different formulations of the herbicide in accordance with some embodiments, prepared in a range of concentrations, in combination with potentially suitable adjuvants, and applied as an aquatic spray. […] Plants are sprayed with the experimental formulation, always in late afternoon (greenhouse tests), or in early morning (field tests), are observed over as many as several weeks, and their visible state of decline scored by the same examiner on a 9 points system relying on visual effects of toxicity. […]"}, "[4]": {"system": "the three grasses in P-2 (Pasture Blend 2)", "assay": "Trial 46: greenhouse foliar spray trial, grasses, visual toxicity scoring", "type": "in vivo, Lolium perenne, Dactylis glomerata, Festuca arundinacea", "conditions": "Day 8 through Day 18", "text": "as §2, §3"}, "[5]": {"system": "weeds growing in soil", "type": "in vivo"}, "[6]": {"system": "plants", "assay": "Example 13: micronutrient salt composition applied to plants as in Example 1, toxicity scoring", "type": "in vivo", "conditions": "after a period of 3-30 days", "experimental": "Toxicity scoring is performed as described in Table 7."}, "[7]": {"system": "all broadleaf species in the trial", "assay": "Trial 64: greenhouse foliar spray trial, broadleaf species", "type": "in vivo", "conditions": "0.5 molarity; Days 12 through 34", "text": "as §1"}, "[8]": {"system": "the grass species in the trial", "assay": "Trial 64: greenhouse foliar spray trial, grass species", "type": "in vivo, grasses of pasture seed blend", "conditions": "0.5 molarity; Days 12 through 34", "text": "as §1"}, "[9]": {"system": "monocotyledonous grass and liliaceae species (Pasture Blend 2, Allium cepa)", "assay": "Trial 41: greenhouse foliar spray trial, monocots, visual toxicity scoring", "type": "in vivo, grasses of pasture seed blend", "conditions": "2.0M; Plants P-2 and 2", "text": "(§4) FIG. 5 depicts the average toxicity scores for the four plants tested in Trial 41, which tested an embodiment of an herbicide composition and method of using the same. The plants were numbered 22, 2, 3, and 10, corresponding to mixed monocotyledonous and dicotyledonous Pasture Blend 2 and Allium cepa (Onion “Torpedo Red”), and dicotyledonous Antirrhinum majus (Snapdragon) and Cineraria meritima (Dusty Miller, “Silver Dust” (Refer to Tables 4A and 4B for plant species identification). Both of the samples S-1 and S-2 were solutions of 2.0 Molar of ammonium sulfate having a pH of 5.5. (Refer to Tables 6A and 6B for trial solutions, details and results). Results of Trial 41: For broadleaf (dicotyledonous) species of Sample S-1 at 2.0 Molar concentration, excellent phytotoxic effects from 4.0 to 5.0 (“severe-to-fatal”) resulted from Day 3 through trial conclusion at Day 23. For monocotyledonous grass and liliaceae species of Sample S-2 at 2.0 Molar concentration, an initial moderate effect of 3.0 had decreased to 2.3 (“slight”). […] Dicots included in the Pasture 2 samples of S-1 and S-2 were all dead by Day 7. However, separate toxicity results for the monocots and dicots present in the Pasture Blend 2 mix were not recorded, and are not presented in FIG. 5.\n(§5) In Trial 41, the herbicide comprised Ammonium sulfate […]; molarity 2.0; unadjusted pH approx. 5.5. […]"}, "[10]": {"system": "broadleaf (dicotyledonous) species (Antirrhinum majus, Cineraria meritima)", "assay": "Trial 41: greenhouse foliar spray trial, dicots, visual toxicity scoring", "type": "in vivo", "conditions": "solutions “B”, 2.0M; Plant 3 and 10; by test conclusion at Day 23", "text": "as §4, §5"}}, "note": "Read-outs that look alike come from different tables or passages of the source."}
{"compound": "O=C([O-])CC(O)(CC(=O)[O-])C(=O)[O-].[K+].[K+].[K+]", "note": "[K-citrate, potassium citrate]", "values": [{"measurement": "average toxicity score", "setting": "[1]; 1.0M", "result": 4.0}, {"measurement": "average toxicity score", "setting": "[1]; […]", "result": 4.3}]}
{"compound": "O=S(=O)([O-])[O-].[Zn+2]", "note": "[ZnSO4, Zinc Sulfate]", "values": [{"measurement": "average toxicity score", "setting": "[2]; 1.0M, first of three values for “Days 521 through 32”", "result": 4.3}, {"measurement": "average toxicity score", "setting": "[2]; 1.0M, second of three values for “Days 521 through 32”", "result": 4.4}, {"measurement": "average toxicity score", "setting": "[2]; 1.0M, third of three values for “Days 521 through 32”", "result": 4.2}, {"measurement": "average toxicity score", "setting": "[2]; 1.0 molar solution, Day 21 through Day 32", "result": "approximately 4.5"}, {"measurement": "average toxicity score", "setting": "[2]; 2.0 molar solution, Day 9", "result": 3.9}]}
{"compound": "O=P([O-])(O)O.[K+]", "note": "[Mono-potassium phosphate]", "values": [{"measurement": "phytotoxic effect (in words)", "setting": "[3]; 1.0M solution (so in the source), Days 8 through 18", "result": "severe-to-fatal"}, {"measurement": "phytotoxic effect (in words)", "setting": "[3]; 2.0 molar test solution, Day 8 through Day 18, broadleaf samples (dicots)", "result": "Severe-to-fatal"}, {"measurement": "phytotoxic effect (in words)", "setting": "[4]; 1.5 molar test solution", "result": "minimal effect"}, {"measurement": "phytotoxic effect (in words)", "setting": "[4]; 2.0 molar test solution", "result": "minimal effect"}]}
{"compound": "O=[N+]([O-])[O-].O=[N+]([O-])[O-].[Mg+2]", "note": "[magnesium nitrate]", "values": [{"measurement": "herbicidal effects on the weed plants", "setting": "[5]; in vivo", "result": "has herbicidal effects"}]}
{"compound": "O.O=S(=O)([O-])[O-].[Zn+2]", "note": "[Zn sulfate monohydrate]", "values": [{"measurement": "plant death", "setting": "[6]", "result": "plant death is observed"}]}
{"compound": "O.O.O.O.O=BOB1OB(OB=O)OB2OB([O-])OB([O-])OB(O1)O2.[Na+].[Na+]", "note": "[disodium octaborate tetrahydrate]", "values": [{"measurement": "phytotoxic control (in words)", "setting": "[7]", "result": "Excellent phytotoxic control"}, {"measurement": "phytotoxic control (in words)", "setting": "[8]", "result": "Partial control"}]}
{"compound": "N.N.O=S(=O)(O)O", "note": "[Ammonium sulfate]", "values": [{"measurement": "herbicidal effects on the weed plants", "setting": "[5]; aqueous solution with citric acid and a surfactant, sprayed", "result": "has herbicidal effects"}, {"measurement": "responsiveness (in words)", "setting": "[9]", "result": "considerably less responsive"}, {"measurement": "toxicity level (in words)", "setting": "[10]", "result": "severe-to-fatal"}]}
{"compound": "O=[N+]([O-])[O-].O=[N+]([O-])[O-].[Ca+2]", "note": "[calcium nitrate]", "values": [{"measurement": "herbicidal effects on the weed plants", "setting": "[5]; in vivo", "result": "has herbicidal effects"}]}
